The structures appear in SMILES notation. Values after ≈ are worked out from the molar mass of the structure shown. Bounds are passed on as bounds.

The text below walks through data of ChEMBL document CHEMBL5244281, “Tackling multidrug-resistant Staphylococcus aureus by natural products and their analogues acting as NorA efflux pump inhibitors” (Bioorg Med Chem, 2023).

The target of experiment [1] is T1, Quinolone resistance protein NorA (Staphylococcus aureus) (UniProt P0A0J7).
T1 sequence (whole entry): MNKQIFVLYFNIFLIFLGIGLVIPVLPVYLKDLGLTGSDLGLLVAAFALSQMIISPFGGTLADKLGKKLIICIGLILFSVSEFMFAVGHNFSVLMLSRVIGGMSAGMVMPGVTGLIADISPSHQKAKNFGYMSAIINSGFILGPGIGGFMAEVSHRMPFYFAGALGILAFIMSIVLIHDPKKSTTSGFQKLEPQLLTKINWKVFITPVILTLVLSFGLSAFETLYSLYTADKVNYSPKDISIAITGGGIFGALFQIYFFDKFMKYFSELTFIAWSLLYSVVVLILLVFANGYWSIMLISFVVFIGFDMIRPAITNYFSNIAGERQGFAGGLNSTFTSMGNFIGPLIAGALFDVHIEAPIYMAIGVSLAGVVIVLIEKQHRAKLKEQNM
As to the kind of experiment: Modulation of EtBr -induced inhibition of NorA efflux pump in Staphylococcus aureus 1199B overexpressing NorA efflux pump assessed as reduction in EtBr MIC at 1/4 times of MIC using EtBr as substrate by resazurin based assay. In general terms: Alamar Blue is a resazurin reagent that responds to reducing activity.

Experiment [2] addresses T1, Quinolone resistance protein NorA (Staphylococcus aureus). Nature of the experiment: Modulation of norfloxacin-induced inhibition of NorA efflux pump in Staphylococcus aureus 1199B overexpressing NorA efflux pump assessed as reduction in norfloxacin MIC at 1/4 times of MIC by resazurin based assay.
The subject of experiment [3] is Staphylococcus aureus. As to the kind of experiment: Antibacterial activity against norfloxacin resistant Staphylococcus aureus 1199B overexpressing NorA assessed as bacterial growth inhibition incubated for 24 hrs by resazurin based broth microdilution method. In kind it is functional.
Experiment [4] has as its system Staphylococcus aureus. As to the kind of experiment: Antibacterial activity against norfloxacin resistant Staphylococcus aureus 1199 assessed as bacterial growth inhibition incubated for 24 hrs by resazurin based broth microdilution method. In kind it is functional.
Experiment [5] concerns Staphylococcus aureus. Nature of the experiment: Antibacterial activity against tetracycline-resistant Staphylococcus aureus XU212 assessed as bacterial growth inhibition incubated for 18 hrs by MTT assay. In kind it is functional. On the technique in general: Tetrazolium dyes change colour on reduction, which living cells bring about.
The test system of experiment [6] is Staphylococcus aureus. Nature of the experiment: Antibacterial activity against Staphylococcus aureus ATCC25923 assessed as bacterial growth inhibition incubated for 18 hrs by MTT assay. In kind it is functional.
For experiment [7], the system named is Staphylococcus aureus. As to the kind of experiment: Antibacterial activity against Staphylococcus aureus 1199B overexpressing NorA assessed as bacterial growth inhibition incubated for 18 hrs by MTT assay. In kind it is functional.
In experiment [8] the test system is Staphylococcus aureus. Nature of the experiment: Antibacterial activity against Staphylococcus aureus EMRSA-15 assessed as bacterial growth inhibition incubated for 18 hrs by MTT assay. In kind it is functional.
Experiment [9] has as its system Staphylococcus aureus. As to the kind of experiment: Antibacterial activity against Staphylococcus aureus RN4220 assessed as bacterial growth inhibition incubated for 18 hrs by MTT assay. Format: functional.
Experiment [10] deals with Staphylococcus aureus. Nature of the experiment: Antibacterial activity against methicillin-resistant Staphylococcus aureus 1199B overexpressing NorA gene assessed as bacterial growth inhibition. In kind it is functional.
In experiment [11] the test system is Staphylococcus aureus. Nature of the experiment: Antibacterial activity against NorA knockout Staphylococcus aureus K1758 assessed as bacterial growth inhibition incubated for 24 hrs by broth microdilution method. In kind it is functional. In general terms: Dilution methods test growth across graded concentrations, often in twofold steps.
Experiment [12] relates to Staphylococcus aureus. Nature of the experiment: Antibacterial activity against Staphylococcus aureus 1199B overexpressing NorA efflux gene assessed as bacterial growth inhibition incubated for 24 hrs by broth microdilution method. In kind it is functional.
Experiment [13] has as its system Staphylococcus aureus. As to the kind of experiment: Antibacterial activity against Staphylococcus aureus 1199 assessed as bacterial growth inhibition incubated for 24 hrs by broth microdilution method. Format: functional.
For experiment [14], the system named is Staphylococcus aureus. Nature of the experiment: Antibacterial activity against norfloxacin resistant Staphylococcus aureus 1199B overexpressing NorA assessed as bacterial growth inhibition incubated for 24 hrs by resazurin based microdilution assay. Format: functional.
Experiment [15] deals with Staphylococcus aureus. Nature of the experiment: Antibacterial activity against norfloxacin resistant Staphylococcus aureus IS-58 overexpressing TetK efflux pump gene assessed as bacterial growth inhibition incubated for 18 to 24 hrs by NCCLS protocol based microdilution method. In kind it is functional. The settings on record: time 18-24 hrs.
In experiment [16] the test system is Staphylococcus aureus. As to the kind of experiment: Antibacterial activity against norfloxacin resistant Staphylococcus aureus 1199B overexpressing NorA efflux pump gene assessed as bacterial growth inhibition incubated for 18 to 24 hrs by NCCLS protocol based microdilution method. In kind it is functional. The following applies: time 18-24 hrs.
The subject of experiment [17] is Staphylococcus aureus. Nature of the experiment: Antibacterial activity against norfloxacin resistant Staphylococcus aureus RN4220 overexpressing MsrA efflux pump gene assessed as bacterial growth inhibition incubated for 18 to 24 hrs by NCCLS protocol based microdilution method. In kind it is functional. The settings on record: time 18-24 hrs.

In the case of `O=C(CCc1ccc(O)cc1)c1c(O)cc(O)cc1O`, the MIC in [1] came to 8 µg/mL; in experiment [2] it was 32 µg/mL.
In the same order, the values of `O=C1C[C@@H](c2ccc(O)cc2)Oc2cc(O)cc(O)c21` are 16 µg/mL and 32 µg/mL.
On to `C=CCc1ccccc1` [ALLYLBENZENE], for which the MIC in the experiment with Staphylococcus aureus [3] and in the experiment on Staphylococcus aureus [4] was above 1020 µg/mL in each case.
Turning to `CC1(C)C=Cc2c(cc3occ(-c4ccc(O)cc4)c(=O)c3c2O)O1` [ALPINUMISOFLAVONE], the MIC with Staphylococcus aureus [5], in the experiment on Staphylococcus aureus [6], with Staphylococcus aureus [7], with Staphylococcus aureus [8] and in the experiment on Staphylococcus aureus [9] was 32 µg/mL (≈ 95.1 µM) in each case.
For `COc1ccc(-c2oc3cc(OC)c(OC)c(O)c3c(=O)c2OC)cc1OC` [ARTEMETIN], the MIC with Staphylococcus aureus [10] is 256 µg/mL (≈ 659 µM).
Consider `C=CCc1ccc(O)c(OC)c1` [EUGENOL], for which the MIC was found to be 128 µg/mL (≈ 780 µM) in the experiment with Staphylococcus aureus [3] and 102 µg/mL (≈ 619 µM) in the experiment with Staphylococcus aureus [4].
For the compound `O=c1c(O)c(-c2ccccc2)oc2cc(O)cc(O)c12` [GALANGIN], the MIC in the experiment on Staphylococcus aureus [11] is 125 µg/mL (≈ 463 µM); in the experiment with Staphylococcus aureus [12] it was 250 µg/mL (≈ 925 µM); with Staphylococcus aureus [13], 125 µg/mL (≈ 463 µM).
In the case of `CC[n+]1c(-c2ccccc2)c2cc(N)ccc2c2ccc(N)cc21.[Br-]` [HOMIDIUM BROMIDE], in the experiment on Staphylococcus aureus [14], the MIC worked out at 32 µg/mL.
For the compound `O=c1c(O)c(-c2ccc(O)cc2)oc2cc(O)cc(O)c12` [KAEMPFEROL], the MIC in the experiment with Staphylococcus aureus [11] came to 125 µg/mL (≈ 437 µM); in the experiment with Staphylococcus aureus [12], 250 µg/mL (≈ 873 µM); in the experiment with Staphylococcus aureus [13], 125 µg/mL (≈ 437 µM).
For `COc1c2occc2cc2ccc(=O)oc12` [METHOXSALEN], the MIC in the experiment on Staphylococcus aureus [15], in the experiment on Staphylococcus aureus [16] and with Staphylococcus aureus [17] was above 256 µg/mL each time.
Take `C=CCc1cc(OC)c(O)c(OC)c1` [METHOXYEUGENOL]: the MIC in the experiment with Staphylococcus aureus [3] came to 128 µg/mL (≈ 659 µM); with Staphylococcus aureus [4], 32 µg/mL (≈ 165 µM).
For `CCn1cc(C(=O)O)c(=O)c2cc(F)c(N3CCNCC3)cc21` [NORFLOXACIN], the figures for the MIC in the experiment on Staphylococcus aureus [10] and in the experiment with Staphylococcus aureus [14] were 32 µg/mL (≈ 100 µM) and 64 µg/mL (≈ 200 µM), respectively.
On to `COc1cc(O)c2c(=O)c(OC)c(-c3ccc(O)c(OC)c3)oc2c1` [PACHYPODOL], for which the MIC in the experiment with Staphylococcus aureus [10] is 256 µg/mL (≈ 743 µM).
On to `CC(C)=CCOc1c2occc2cc2ccc(=O)oc12` [PENTOSALEN], for which the MIC in the experiment on Staphylococcus aureus [15], in the experiment with Staphylococcus aureus [16] and in the experiment on Staphylococcus aureus [17] was above 256 µg/mL each time.
For the compound `O=C1C[C@@H](c2ccccc2)Oc2cc(O)cc(O)c21` [PINOCEMBRIN], the figures for the MIC in the experiment on Staphylococcus aureus [11], in the experiment on Staphylococcus aureus [12] and in the experiment with Staphylococcus aureus [13] were 250 µg/mL (≈ 976 µM), 500 µg/mL (≈ 1950 µM) and 250 µg/mL (≈ 976 µM), respectively.
Turning to `COc1ccc(-c2coc3cc(O)cc(O)c3c2=O)cc1O` [PRATENSEIN], the MIC in the experiment with Staphylococcus aureus [5], in the experiment on Staphylococcus aureus [6], with Staphylococcus aureus [7], with Staphylococcus aureus [8] and with Staphylococcus aureus [9] was 32 µg/mL (≈ 107 µM) each time.
